According to patent publication US8637542B2, “Kinase inhibitors and methods of use” (Intellikine, Inc., priority 2008, dated 2014):

How the values were obtained:
Format in all cases: biochemical
[1] = molecular target: T1, mTORC (Homo sapiens, UniProt P42345); test: In-vitro mTORC inhibition assay
T1 construct: purchased Invitrogen
Procedure: The compounds described herein can be tested against recombinant mTOR (Invitrogen) in an assay containing 50 mM HEPES, pH 7.5, 1 mM EGTA, 10 mM MgCl2, 2.5 mM, 0.01% Tween, 10 μM ATP (2.5 μCi of […]), and 3 μg/mL BSA. Rat recombinant PHAS-1/4EBP1 (Calbiochem; 2 mg/mL) is used as a substrate. Reactions are terminated by spotting onto nitrocellulose, which is washed with 1M NaCl/1% phosphoric acid (approximately 6 times, 5-10 minutes each). Sheets are dried and the transferred radioactivity quantitated by phosphorimaging.
Other kits or systems for assaying mTOR activity are commercially available. For instance, one can use Invitrogen's LanthaScreen™ Kinase assay to test the inhibitors of mTOR disclosed herein. This assay is a time resolved FRET platform that measures the phosphorylation of GFP labeled 4EBP1 by mTOR kinase. The kinase reaction is performed in a white 384 well microtitre plate. The total reaction volume is 20 ul per well and the reaction buffer composition is 50 mM HEPES pH7.5, 0.01% Polysorbate 20, 1 mM EGTA, 10 mM MnCl2, and 2 mM DTT. In the first step, each well receives 2 ul of test compound in 20% dimethylsulphoxide resulting in a 2% DMSO final concentration. Next, 8 ul of mTOR diluted in reaction buffer is added per well for a 60 ng/ml final concentration. To start the reaction, 10 ul of an ATP/GFP-4EBP1 mixture (diluted in reaction buffer) is added per well for a final concentration of 10 uM ATP and 0.5 uM GFP-4EBP1. The plate is sealed and incubated for 1 hour at room temperature. The reaction is stopped by adding 10 ul per well of a Tb-anti-pT46 4EBP1 antibody/EDTA mixture (diluted in TR-FRET buffer) for a final concentration of 1.3 nM antibody and 6.7 mM EDTA. The plate is sealed, incubated for 1 hour at room temperature, and then read on a plate reader set up for LanthaScreen™ TR-FRET. Data is analyzed and IC50s are generated using GraphPad Prism 5.

[2] = molecular target: T2, PI3K α (Homo sapiens, UniProt P42336); test: In-vitro PI3K α inhibition assay
T2 construct: purchased Upstate
T2 sequence (P42336 whole entry): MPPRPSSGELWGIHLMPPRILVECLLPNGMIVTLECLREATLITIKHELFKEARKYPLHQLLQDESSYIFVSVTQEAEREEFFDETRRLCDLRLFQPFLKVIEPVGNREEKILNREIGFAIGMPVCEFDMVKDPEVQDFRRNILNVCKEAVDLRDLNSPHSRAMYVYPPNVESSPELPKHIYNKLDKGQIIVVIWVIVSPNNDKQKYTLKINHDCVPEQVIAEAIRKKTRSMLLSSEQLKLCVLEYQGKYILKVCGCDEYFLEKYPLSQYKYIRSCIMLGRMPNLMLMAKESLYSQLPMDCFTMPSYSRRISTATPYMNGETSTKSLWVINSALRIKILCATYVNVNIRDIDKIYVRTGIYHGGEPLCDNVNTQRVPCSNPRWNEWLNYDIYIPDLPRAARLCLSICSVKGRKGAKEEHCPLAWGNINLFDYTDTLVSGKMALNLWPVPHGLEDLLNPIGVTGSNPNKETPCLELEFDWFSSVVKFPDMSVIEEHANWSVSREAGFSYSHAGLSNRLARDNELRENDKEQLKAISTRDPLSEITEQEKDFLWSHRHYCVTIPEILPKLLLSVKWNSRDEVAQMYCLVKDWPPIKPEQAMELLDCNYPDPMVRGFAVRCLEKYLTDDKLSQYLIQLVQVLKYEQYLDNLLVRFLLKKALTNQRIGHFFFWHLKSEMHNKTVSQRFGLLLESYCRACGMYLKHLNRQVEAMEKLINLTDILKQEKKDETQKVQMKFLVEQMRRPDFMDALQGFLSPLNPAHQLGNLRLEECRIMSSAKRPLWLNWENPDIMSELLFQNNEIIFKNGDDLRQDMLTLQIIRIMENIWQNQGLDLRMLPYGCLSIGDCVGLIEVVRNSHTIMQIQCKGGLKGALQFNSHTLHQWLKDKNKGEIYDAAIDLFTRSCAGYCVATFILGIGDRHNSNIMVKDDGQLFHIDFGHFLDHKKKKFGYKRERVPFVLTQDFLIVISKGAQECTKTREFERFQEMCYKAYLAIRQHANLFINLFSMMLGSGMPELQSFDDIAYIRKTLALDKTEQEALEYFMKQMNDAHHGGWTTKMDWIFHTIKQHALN
T2 sequence (P27986 whole entry partner): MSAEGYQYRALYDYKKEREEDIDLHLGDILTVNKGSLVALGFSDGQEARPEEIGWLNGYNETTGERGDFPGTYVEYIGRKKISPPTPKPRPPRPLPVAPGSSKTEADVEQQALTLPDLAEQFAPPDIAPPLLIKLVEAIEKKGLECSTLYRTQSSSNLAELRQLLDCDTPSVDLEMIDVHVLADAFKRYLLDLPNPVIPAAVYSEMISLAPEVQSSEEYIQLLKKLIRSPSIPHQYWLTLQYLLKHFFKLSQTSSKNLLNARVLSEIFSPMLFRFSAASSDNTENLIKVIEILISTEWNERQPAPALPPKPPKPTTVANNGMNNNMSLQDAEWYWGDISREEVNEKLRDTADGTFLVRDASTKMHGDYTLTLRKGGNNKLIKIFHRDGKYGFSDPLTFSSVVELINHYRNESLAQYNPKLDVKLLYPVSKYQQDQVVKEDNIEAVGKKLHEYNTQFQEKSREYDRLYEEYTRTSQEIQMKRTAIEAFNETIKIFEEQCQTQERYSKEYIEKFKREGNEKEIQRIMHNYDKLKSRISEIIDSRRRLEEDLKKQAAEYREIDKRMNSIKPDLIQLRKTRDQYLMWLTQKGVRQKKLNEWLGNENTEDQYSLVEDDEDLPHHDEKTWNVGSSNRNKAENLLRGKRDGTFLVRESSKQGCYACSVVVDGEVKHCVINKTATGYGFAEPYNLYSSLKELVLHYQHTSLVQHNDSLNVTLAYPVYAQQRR
Procedure: (§1) Class I PI3-Ks can be either purchased (p110α/p85α, p110β/p85α, p110β/p85α from Upstate, and p110γ from Sigma) or expressed as previously described (Knight et al., 2004). IC50 values are measured using either a standard TLC assay for lipid kinase activity (described below) or a high-throughput membrane capture assay. Kinase reactions are performed by preparing a reaction mixture containing kinase, inhibitor (2% DMSO final concentration), buffer (25 mM HEPES, pH 7.4, 10 mM MgCl2), and freshly sonicated phosphatidylinositol ([…]). Reactions are initiated by the addition of ATP containing 10 μCi of γ-32P-ATP to a final concentration 10 or 100 μM and allowed to proceed for 5 minutes at room temperature. For TLC analysis, reactions are then terminated by the addition of 105 μl 1N HCl followed by 160 μl CHCl3:MeOH (1:1). The biphasic mixture is vortexed, briefly centrifuged, and the organic phase is transferred to a new tube using a gel loading pipette tip precoated with CHCl3. This extract is spotted on TLC plates and developed for 3-4 hours in a 65:35 solution of n-propanol:1M acetic acid. The TLC plates are then dried, exposed to a phosphorimager screen (Storm, Amersham), and quantitated. For each compound, kinase activity is measured at 10-12 inhibitor concentrations representing two-fold dilutions from the highest concentration tested (typically, 200 μM).
Other commercial kits or systems for assaying PI3-K activities are available. The commercially available kits or systems can be used to screen for inhibitors and/or agonists of PI3-Ks including but not limited to PI3-Kinase α, β, δ, and γ. An exemplary system is PI3-Kinase (human) HTRF™ Assay from Upstate. […] Briefly, the assay is a time resolved FRET assay that indirectly measures PI3 product formed by the activity of a PI3-K. The kinase reaction is performed in a microtitre plate (e.g., a 384 well microtitre plate). […] The plate is sealed, incubated for 1 hour at room temperature, and then read on an appropriate plate reader. Data is analyzed and IC50s are generated using GraphPad Prism 5.

[3] = molecular target: T3, PI3K δ (Homo sapiens, UniProt O00329); test: In-vitro PI3K δ inhibition assay
T3 construct: purchased Upstate
Procedure: as §1, with “The biphasic mixture is vortexed, briefly centrifuged, and the organic phase is transferred to a new tube using a gel loading pipette tip precoated with CHCl3. This extract is spotted on TLC plates and developed for 3-4 hours in a 65:35 solution of n-propanol:1M acetic acid.” left out
(§2) Other commercial kits or systems for assaying PI3-K activities are available. […] The plate is sealed, incubated for 1 hour at room temperature, and then read on an appropriate plate reader. Data is analyzed and IC50s are generated using GraphPad Prism 5.

[4] = molecular target: T4, PI3K β (Homo sapiens, UniProt P42338); test: In-vitro PI3K β inhibition assay
T4 construct: purchased Upstate
T4 sequence (P42338 whole entry): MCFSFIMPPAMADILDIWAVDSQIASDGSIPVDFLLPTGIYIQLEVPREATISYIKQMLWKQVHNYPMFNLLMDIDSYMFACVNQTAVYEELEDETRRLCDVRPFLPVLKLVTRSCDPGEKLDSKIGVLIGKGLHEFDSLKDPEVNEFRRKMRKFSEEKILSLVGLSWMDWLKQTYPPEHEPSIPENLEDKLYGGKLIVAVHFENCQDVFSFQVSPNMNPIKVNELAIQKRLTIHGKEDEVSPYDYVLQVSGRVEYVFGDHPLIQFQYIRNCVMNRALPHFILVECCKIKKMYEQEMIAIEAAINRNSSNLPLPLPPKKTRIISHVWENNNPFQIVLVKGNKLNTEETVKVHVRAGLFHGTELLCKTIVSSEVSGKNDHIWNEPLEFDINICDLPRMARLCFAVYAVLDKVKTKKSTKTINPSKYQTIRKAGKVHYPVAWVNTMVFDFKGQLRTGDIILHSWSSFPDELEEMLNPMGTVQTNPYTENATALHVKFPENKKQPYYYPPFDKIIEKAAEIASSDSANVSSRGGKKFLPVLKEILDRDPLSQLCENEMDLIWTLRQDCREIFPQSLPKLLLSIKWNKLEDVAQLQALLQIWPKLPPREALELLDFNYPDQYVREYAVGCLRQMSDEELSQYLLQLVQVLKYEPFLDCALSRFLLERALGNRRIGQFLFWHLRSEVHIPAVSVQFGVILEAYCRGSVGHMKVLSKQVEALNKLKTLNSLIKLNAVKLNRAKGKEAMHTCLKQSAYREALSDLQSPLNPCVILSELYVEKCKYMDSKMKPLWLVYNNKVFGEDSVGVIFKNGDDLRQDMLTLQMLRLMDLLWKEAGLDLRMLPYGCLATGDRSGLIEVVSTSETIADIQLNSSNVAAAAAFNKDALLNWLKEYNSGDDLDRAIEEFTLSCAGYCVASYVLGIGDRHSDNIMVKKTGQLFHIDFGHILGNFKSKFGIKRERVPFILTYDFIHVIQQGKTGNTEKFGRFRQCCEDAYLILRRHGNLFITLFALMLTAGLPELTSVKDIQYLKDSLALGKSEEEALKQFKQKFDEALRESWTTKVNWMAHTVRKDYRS
T4 sequence (P27986 whole entry partner): as the sequence (P27986 whole entry partner) above
Procedure: as §1, with “The biphasic mixture is vortexed, briefly centrifuged, and the organic phase is transferred to a new tube using a gel loading pipette tip precoated with CHCl3. This extract is spotted on TLC plates and developed for 3-4 hours in a 65:35 solution of n-propanol:1M acetic acid.” left out
as §2

T1 sequence (P42345 1360-2549 limits assumed): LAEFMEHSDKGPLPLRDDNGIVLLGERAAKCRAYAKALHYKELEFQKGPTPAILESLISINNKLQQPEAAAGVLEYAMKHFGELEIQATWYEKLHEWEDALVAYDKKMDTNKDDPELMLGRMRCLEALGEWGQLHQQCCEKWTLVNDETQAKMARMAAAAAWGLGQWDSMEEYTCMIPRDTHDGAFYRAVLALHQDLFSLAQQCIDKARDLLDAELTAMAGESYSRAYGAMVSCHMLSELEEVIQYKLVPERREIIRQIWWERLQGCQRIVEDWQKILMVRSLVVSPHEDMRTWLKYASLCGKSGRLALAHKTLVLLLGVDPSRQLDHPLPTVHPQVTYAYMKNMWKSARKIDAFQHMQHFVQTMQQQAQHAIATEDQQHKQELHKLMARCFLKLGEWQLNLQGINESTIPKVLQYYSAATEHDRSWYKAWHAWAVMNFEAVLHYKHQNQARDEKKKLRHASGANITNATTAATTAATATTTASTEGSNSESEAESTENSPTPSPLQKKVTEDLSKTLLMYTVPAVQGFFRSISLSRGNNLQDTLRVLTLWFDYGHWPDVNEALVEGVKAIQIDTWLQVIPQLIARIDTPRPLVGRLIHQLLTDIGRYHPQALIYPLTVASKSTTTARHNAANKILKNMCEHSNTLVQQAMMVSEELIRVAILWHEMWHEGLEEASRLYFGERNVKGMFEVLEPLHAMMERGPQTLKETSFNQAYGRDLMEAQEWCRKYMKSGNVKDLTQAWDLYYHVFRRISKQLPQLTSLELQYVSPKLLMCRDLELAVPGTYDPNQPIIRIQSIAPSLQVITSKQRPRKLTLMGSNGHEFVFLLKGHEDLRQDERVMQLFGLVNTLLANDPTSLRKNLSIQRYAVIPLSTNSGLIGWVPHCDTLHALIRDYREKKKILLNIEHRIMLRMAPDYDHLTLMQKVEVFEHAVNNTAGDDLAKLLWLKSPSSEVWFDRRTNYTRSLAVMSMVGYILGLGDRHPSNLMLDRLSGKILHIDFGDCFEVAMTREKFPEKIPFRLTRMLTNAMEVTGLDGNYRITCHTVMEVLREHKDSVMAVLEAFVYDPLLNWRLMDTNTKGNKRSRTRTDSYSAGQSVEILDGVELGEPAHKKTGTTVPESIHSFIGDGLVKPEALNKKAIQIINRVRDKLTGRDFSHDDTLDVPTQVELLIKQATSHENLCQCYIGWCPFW

Row | Compound | IC50 [1] | IC50 [2] | IC50 [3] | IC50 [4]
1 | CC(C)n1nc(-c2cc3cc(O)ccc3[nH]2)c2c(N)nccc21 [Compound 1] | ≤ 1000 nM |  |  | 
2 | CC(C)n1nc(-c2ccc3onc(N)c3c2)c2c(N)nccc21 [Compound 2] | > 1000 nM | > 1000 nM |  | 
3 | CC(C)n1nc(-c2cnc3[nH]ccc3c2)c2c(N)nccc21 [Compound 3] | > 1000 nM | > 1000 nM | > 1000 nM | > 1000 nM
4 | CC(C)n1nc(-c2ccc3oc(N)nc3c2)c2c(N)nccc21 [Compound 4] | ≤ 1000 nM | > 1000 nM |  | > 1000 nM
